Structures can show the parent of a compound that is named as a salt.

The test deals with human corneal epithelial cell line HCEC. Kind of test: Protection against UV-C-induced human corneal epithelial cell damage, viable cell count. Type of test: cell-based. Conditions: Table 8-2, UV-C 5 seconds. The procedure:
Human corneal epithelial cell line HCEC was suspended in 10% fetal bovine serum-SHEM modified medium at a concentration of 1×10^5 cells/ml and 500 µl of this cell suspension was seeded into each well of a 24-multiwell plate (Corning). The cells were cultured in a 5% CO2 incubator at 37°C for 16 to 17 hours. Then, the culture supernatant was thoroughly removed and 500 µl of 10% fetal bovine serum-SHEM modified medium containing a test sample was added to each well. The cells were cultured under the same conditions as above for a further two hours. After completion of culture in contact with the sample, the culture supernatant was removed thoroughly so that there would be substantially no residue of the sample in the multiwell plate. The multiwell plate in this condition was irradiated with UV-C, the ultraviolet light with a maximum lethal power, at a distance of 20 to 30 cm for 5 seconds. After UV-C irradiation, 500 µl/well of 10% fetal bovine serum-SHEM modified medium containing the same sample as above was added again and the cells were cultured under the same conditions as above for 16 to 17 hours. Then, the supernatant was discarded from each well and 100 µl of an excision solution (PBS containing 0.25% trypsin (w/v) and 0.02% EDTA) was added. The plate was then incubated in a 5% CO2 incubator at 37 °C for 6 minutes. After this incubation, the viable epithelial cells were thoroughly detached and dispersed by pipetting and stained with 100 µl of 0.1% (w/v) trypan blue staining solution, and immediately the viable cells were counted with a hemocytometer. The protective effect of the sample against UV-induced human corneal epithelial cell damage was evaluated by the following computation. Protective effect (%) = (number of viable cells in sample-added group ÷ number of viable cells in sample-free group) × 100 [formula]

In the case of `CC(=O)Oc1c(C)c(C)c2c(c1C)CCC(C)(CCCC(C)CCCC(C)CCCC(C)C)O2` (racemic) [Vitamin E, DL-α-tocopherol acetate], the “Protective effect (%)” value (20 µM) was determined as 107%.

`N[C@@H](CS)C(=O)O` [Cysteine]: the “Protective effect (%)” value (2 mM) was determined as 46%. The same measure, in the same setting: to `CC(=O)N(O)CCCCCNC(=O)CCC(=O)N(O)CCCCCNC(=O)CCC(=O)N(O)CCCCCN` [Deferoxamine mesylate] belongs 94%. As for `N[C@@H](CCC(=O)N[C@@H](CS)C(=O)NCC(=O)O)C(=O)O` [Glutathione], under “2 mM”, the “Protective effect (%)” value was 95%. Regarding `O=C1O[C@H]([C@@H](O)CO)C(O)=C1O` [Vitamin C, ascorbic acid], the “Protective effect (%)” value (2 mM) is 104%.

For the origin of these results see patent publication EP1060748A1, “REMEDIES FOR CORNEAL EPITHELIUM DISTURBANCE” (Wakamoto Pharmaceutical Co., Ltd., priority 1998, dated 1999).
